Results reported in article PMC7017082, “Tivantinib, A c-Met Inhibitor in Clinical Trials, Is Susceptible to ABCG2-Mediated Drug Resistance” (Cancers, 2020).

Target: T1, ABCG2 (ATP-binding cassette super-family G member 2, BCRP) (Homo sapiens, UniProt Q9UNQ0)
T1 construct: ABCG2 in insect cell membrane vesicles
T1 sequence (Q9UNQ0 1-655): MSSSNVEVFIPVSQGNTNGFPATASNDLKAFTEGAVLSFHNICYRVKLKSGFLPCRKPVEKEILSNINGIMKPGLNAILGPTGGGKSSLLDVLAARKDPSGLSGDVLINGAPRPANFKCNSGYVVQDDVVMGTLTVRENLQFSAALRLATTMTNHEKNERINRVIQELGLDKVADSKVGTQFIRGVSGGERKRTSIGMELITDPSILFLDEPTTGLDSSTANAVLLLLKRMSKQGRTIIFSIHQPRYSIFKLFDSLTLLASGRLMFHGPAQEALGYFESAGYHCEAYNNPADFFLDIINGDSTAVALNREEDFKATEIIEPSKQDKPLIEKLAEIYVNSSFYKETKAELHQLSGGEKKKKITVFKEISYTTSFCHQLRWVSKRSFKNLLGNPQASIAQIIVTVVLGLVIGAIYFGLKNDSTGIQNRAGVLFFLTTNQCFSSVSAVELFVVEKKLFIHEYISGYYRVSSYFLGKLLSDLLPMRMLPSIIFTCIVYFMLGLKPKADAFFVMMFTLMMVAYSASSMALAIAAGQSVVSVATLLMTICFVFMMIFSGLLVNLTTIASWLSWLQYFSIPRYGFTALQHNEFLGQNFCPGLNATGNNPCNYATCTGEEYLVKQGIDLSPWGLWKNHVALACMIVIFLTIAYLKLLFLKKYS
Assay: biochemical

O=C1NC(=O)[C@@H](c2cn3c4c(cccc24)CCC3)[C@@H]1c1c[nH]c2ccccc12 [Tivantinib]
EC50: 6.76 µM
